The values that follow come from US6562828B1, “Amidine compounds” (Japan Tobacco Inc., priority 1998, dated 2003).

SMILES strings stand for the structures. Structures can show the parent of a compound that is named as a salt.

For test [1], the system named is normal plasma. The test can be described thus: Determination of prothrombin time (PT), mouse plasma. It is filed as biochemical. As to the method:
(§1) Determination of prothrombin time (PT)
(§2) Blood was taken from mouse, rat, crab-eating monkey and healthy human volunteers, and citric acid was added. The blood was centrifuged at 4° C. and 2000 G for 15 min to obtain normal plasma of various animals.
(§3) Purified water (5 μl) containing various concentrations of test compound was added to plasma (45 μl) and the resultant mixtures were used as samples. […] (Baxter) was prepared and heated at […] for 5 min, and a sample (50 μl) was admixed with the thrombin reagent (100 μl). The time (PT) until precipitation of fibrin was measured. The drug concentration that doubled the PT hours of the drug untreated group was calculated and taken as CT2.

The target in test [2] is T1, Human FXa (Homo sapiens, UniProt P00742).
T1 construct: Human FXa [Enzyme research Laboratories (USA)] enzyme; purchased Enzyme Research Laboratories (USA)
The test can be described thus: Intravenous administration test in mouse, human FXa inhibitory activity in serum. The test is classed as in vivo. The conditions noted are these: ICR mice, i.v., mean ± S.D., n = 3. As to the method:
Intravenous Administration Tests in Mouse
A test compound dissolved in physiological saline was intravenously administered to ICR mice (body weight 20-30 g, 4-6 weeks old) and the activity of the test compound was evaluated based on the human FXa inhibitory activity in serum as an indicator.
At 10, 30, 60, 120 min from the intravenous administration, blood was taken from the eye ground using a hematocrit tube. The blood was centrifuged at 9000 G for 5 min and the obtained serum was used for the determination.
(§4) Human FXa inhibitory activity was measured as follows. Human FXa [Enzyme research Laboratories (USA)] enzyme (40 μl, 0.5 U/ml) and a 4-fold diluted plasma sample (40 μl) were incubated in 0.1M Tris-0.2M NaCl buffer (pH 8.4) (40 μl) at 37° C. for 10 min. A synthetic substrate S-2222 (Daiichi Pure Chemical (Tokyo, Japan), 40 μl) adjusted to 0.8 mM was added and the mixture was incubated at 37° C. for 5 min. The reaction was stopped by addition of 60% acetic acid (40 μl) and absorbance at 405 nm was measured by Model 3550 (BIO-RAD). For the control, serum or plasma obtained prior to blood sampling was used for measurement. Human FXa inhibitory activity was calculated as inhibition percentage (%) against control.

Test [3] deals with T1, Human FXa. The test can be described thus: Oral administration test in mouse, human FXa inhibitory activity in serum. It is filed as in vivo. The conditions noted are these: ICR mice, mean ± S.D., n = 3. As to the method: as §4
Oral Administration Tests in Mouse
A test compound dissolved in distilled water was orally administered to ICR mice (body weight 20-30 g, 4-6 weeks old) and the activity of the test compound was evaluated based on the human FXa inhibitory activity in serum as an indicator.
At 30, 60, 120, 180 min from the oral administration, blood was taken from the eye ground using a hematocrit tube. The blood was centrifuged at 9000 G for 5 min and the obtained serum was used for the determination. Human FXa inhibitory activity was determined in the same manner as in the test by intravenous administration.

The target in test [4] is T2, Human FIIa (Homo sapiens, UniProt P00734).
T2 construct: purchased Sigma
The test can be described thus: Determination of anti-factor IIa (FIIa) activity, synthetic substrate S-2238. The test is classed as biochemical. The conditions noted are these: S-2238, 37° C., pH 8.4, read-out: Experimental Example 2: anti-FIIa activity, IC50.

For test [5], the system named is normal plasma. Kind of test: Determination of prothrombin time (PT), human plasma. The test is classed as biochemical. As to the method:
as §1, §2, §3

Test [6] deals with decrease of platelets and formation of FDP by thromboplastin. Kind of test: Blood coagulation model in rat (thromboplastin). It is filed as in vivo. Conditions: i.v. 10 min before thromboplastin, mean ± S.D, n = 3; for PLT value: counted 10 min later; for FDP value: measured 30 min later. As to the method:
Blood Coagulation Model in Rat
Intravenous administration of thromboplastin (Sigma) to rat promotes coagulation system, which in turn decreases platelets and increases fibrin degradation product (FDP). Thus, the test compound was intravenously administered 10 min before thromboplastin administration and the inhibitory effects of the test compound on the decrease of platelets and the formation of FDP by thromboplastin were studied. The thromboplastin administered had such concentration as to form clots within 20 seconds from the addition of one plasma dose to two thromboplastin doses and was administered in 1 ml/kg dose. Platelets were counted (PLT value) 10 min later on a blood cell counter sysmex F-800 [Dade International Inc. (USA)], and FDP was measured 30 min later using FDP latex reagent for serum [Teikoku Hormone Mfg. Co., Ltd. (Tokyo, Japan)]. In every Example, the PLT value of the thromboplastin untreated group was (106±13)×10^4 and the FDP value of this group was 0±0 μg/ml.

For test [7], the system named is normal plasma. The test can be described thus: Determination of prothrombin time (PT), rat plasma. The test is classed as biochemical. As to the method: as §1, §2, §3
Test [8] deals with normal plasma. Kind of test: Determination of prothrombin time (PT), crab-eating monkey plasma. It is filed as biochemical. As to the method: as §1, §2, §3
The target in test [9] is T1, Human FXa. Kind of test: Intravenous administration test in monkey, human FXa inhibitory activity in plasma. Conditions: crab-eating monkey, i.v., mean ± S.D., n = 3. The test is classed as in vivo. As to the method: as §4
Intravenous Administration Tests in Monkey
A test compound dissolved in physiological saline was intravenously administered to monkey (crab-eating monkey, body weight 3.5-4.5 kg) and the activity of the test compound was evaluated based on the human FXa inhibitory activity in plasma as an indicator.
At 10, 30, 60, 120, 180 min from the intravenous administration, blood was taken from the saphenous vein with the passage of time and the blood was centrifuged at 2000 G for 10 min. The obtained citric acid plasma was used for the determination. Human FXa inhibitory activity was determined in the same manner as in the test using mouse.

For test [10], the target named is T1, Human FXa. The test can be described thus: Oral administration test in monkey, human FXa inhibitory activity in plasma. The test is classed as in vivo. Conditions: crab-eating monkey, mean ± S.D., n = 3. As to the method: as §4
Oral Administration Tests in Monkey
A test compound dissolved in distilled water was orally administered to monkey (carb-eating monkey, body weight 3.5-4.5 kg) and the activity of the test compound was evaluated based on the human FXa inhibitory activity in plasma as an indicator.
At 30, 60, 120, 240, 480 min from the oral administration, blood was taken from the saphenous vein with the passage of time and the blood was centrifuged at 2000 G for 10 min. The obtained citric acid plasma was used for the determination. Human FXa inhibitory activity was determined in the same manner as in the test by intravenous administration.

T1 sequence (P00742 235-488 limits assumed): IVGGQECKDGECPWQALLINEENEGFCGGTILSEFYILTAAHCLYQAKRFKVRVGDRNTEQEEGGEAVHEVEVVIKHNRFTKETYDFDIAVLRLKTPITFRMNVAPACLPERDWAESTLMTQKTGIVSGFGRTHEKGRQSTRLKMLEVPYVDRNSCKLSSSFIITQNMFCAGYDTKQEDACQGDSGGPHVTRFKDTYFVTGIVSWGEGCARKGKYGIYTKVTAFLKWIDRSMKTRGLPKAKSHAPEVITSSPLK
T1 sequence (P00742 41-179 limits assumed): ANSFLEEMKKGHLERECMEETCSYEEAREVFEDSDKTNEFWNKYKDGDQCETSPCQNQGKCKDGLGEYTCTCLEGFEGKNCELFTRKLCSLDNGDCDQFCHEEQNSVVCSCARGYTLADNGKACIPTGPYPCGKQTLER

One may read the inhibition as the share of the control response that was lost under treatment. What is called IC50 is the concentration needed to halve the response being measured. As for `N=C(N)N1CCc2ccc(OCC3(C(=O)O)CCN(c4ccncc4)CC3)cc2C1` [Example 7, 4-(2-Amidino-1,2,3,4-tetrahydroisoquinolin-7-yloxymethyl)-1-(pyridin-4-yl)piperidine-4-carboxylic Acid Dihydrochloride], the “CT2 (drug concentration that doubled the PT)” value (from here on “CT2”) was determined as 10 µM in [1], 0.5 µM in test [5] and 30 µM in test [7]. In addition, the inhibition at 1 mg/kg in test [2] (10 minutes) is 64 ± 2%; in [2] (30 minutes) it was 54 ± 1%; in test [2] (60 minutes) it was 46 ± 4%; in test [2] (120 minutes), 30 ± 5%. Further, the inhibition at 3 mg/kg in test [2] (10 minutes) was 82 ± 1%; in test [2] (30 minutes), 78 ± 1%; in test [2] (60 minutes), 72 ± 2%; in test [2] (120 minutes), 59 ± 5%. Besides, the inhibition at 10 mg/kg in test [3] (30 minutes) is 48 ± 7%; in test [3] (60 minutes), 40 ± 9%; in test [3] (120 minutes) it was 26 ± 7%; in [3] (180 minutes), 18 ± 9%. Besides, the IC50 in test [4] is over 10 µM. Moreover, the values for the PLT value in test [6] (dose 0.1 mg/kg), in [6] (dose 0.3 mg/kg) and in test [6] (dose 1 mg/kg) were 66 ± 21 ×10^4 blood platelet/μl, 72 ± 10 ×10^4 blood platelet/μl and 96 ± 18 ×10^4 blood platelet/μl, respectively. The figures for the FDP value in test [6] (dose 0.1 mg/kg), in [6] (dose 0.3 mg/kg) and in [6] (dose 1 mg/kg) were 7 ± 3 µg/mL, 4 ± 1 µg/mL and 0 ± 0 µg/mL, respectively.
Take `CC(=N)N1CC[C@H](Oc2ccc([C@H](Cc3ccc4ccc(C(=N)N)cc4c3)C(=O)O)cc2)C1` [Comparative Example 1, (2S)-2-[4-[(3S)-1-acetimidoylpyrrolidin-3-yloxy]phenyl]-3-[7-amidinonaphthalen-2-yl]propionic acid hydrochloride pentahydrate, reference compound]: the “CT2” value was 10 µM in test [1], 2 µM in test [5], 4 µM in test [8] and 10 µM in [7]. Moreover, the inhibition at 1 mg/kg worked out at 43 ± 3% in test [2] (10 minutes), 14 ± 2% in test [2] (30 minutes), 0% in [2] (60 minutes) and 1 ± 2% in [2] (120 minutes). For the same compound, the inhibition at 10 mg/kg in test [3] (30 minutes) amounted to 11 ± 4%; in test [3] (60 minutes), 6 ± 4%; in test [3] (120 minutes), 6 ± 4%; in [3] (180 minutes) it was 6 ± 4%. The PLT value is listed as 41 ± 9 ×10^4 blood platelet/μl in [6] (dose 0.03 mg/kg), 67 ± 16 ×10^4 blood platelet/μl in test [6] (dose 0.1 mg/kg) and 100 ± 5 ×10^4 blood platelet/μl in test [6] (dose 0.3 mg/kg). In addition, the FDP value in test [6] (dose 0.03 mg/kg) was 9 ± 2 µg/mL; in test [6] (dose 0.1 mg/kg), 3 ± 2 µg/mL; in [6] (dose 0.3 mg/kg) it was 1 ± 1 µg/mL.
In the case of `N=C(N)N1CCc2ccc(OCC3(C(=O)O)CCN(c4ccncc4)CC3)cc2C1` [Example 67, 4-(2-Amidino-1,2,3,4-tetrahydroisoquinolin-7-yloxymethyl)-1-(pyridin-4-yl)piperidine-4-carboxylic Acid Methanesulfonate], the “CT2” value in test [8] came out at 5 µM.
As to `N=C(N)N1CCc2ccc(OCC3(C(=O)O)CCN(c4ccncc4)CC3)cc2C1` [Example 9, 4-(2-Amidino-1,2,3,4-tetrahydroisoquinolin-7-yloxymethyl)-1-(pyridin-4-yl)piperidine-4-carboxylic Acid Hydrochloride], the inhibition at 1 mg/kg turned out to be 82 ± 1% in test [9] (10 minutes); 72 ± 2% in [9] (30 minutes); 58 ± 4% in [9] (60 minutes); 41 ± 3% in test [9] (120 minutes); 29 ± 2% in [9] (180 minutes). Besides, the inhibition at 10 mg/kg in test [10] (30 minutes) came to 28 ± 33%; in [10] (60 minutes), 37 ± 27%; in test [10] (120 minutes), 46 ± 20%; in [10] (240 minutes), 49 ± 9%; in test [10] (480 minutes), 23 ± 11%.
